# Measurements: patent US20260207623A1, “USE OF ESTETROL IN HEPATICALLY IMPAIRED PATIENTS” (ESTETRA SRL, priority 2022, published 2026)
# Where “and” joins values, the source holds several entries; their conditions need not be identical. Equal values may be shown once. Read-outs that look alike come from different tables or passages of the source.
# Experiment: Phase 1 pharmacokinetic study of a single oral dose of 20 mg E4 monohydrate in female subjects with normal hepatic function and mild, moderate or severe hepatic impairment (plasma, LC-MS/MS, non-compartmental analysis)
# Format: in vivo, human
# Conditions: for AUC(0-t) / Cmax / half-life / Tmax / Vd/F / AUC(0-inf): female, human, plasma, po, 20 mg; for Tmax: read-out: Tmax, Median
# Protocol: This was a Phase 1, multi-centre, open-label, PK, and safety study of a single oral dose of 20 mg E4 monohydrate in female subjects with normal hepatic function (Group 1), mild hepatic impairment (Group 2), moderate hepatic impairment (Group 3), and severe hepatic impairment (Group 4), as defined using the Child-Pugh classification at Screening.
# The study consisted of an eligibility Screening period (within 28 days prior to study drug administration), an Assessment Period with in-house period and outpatient visits (including a single oral dose of 20 mg E4 on Day 1), and a follow up visit. All subjects were confined to the study site from Day-1 (the day before dosing) until Day 4 and returned to the site every day from Day 5 to Day 9. Alternatively, the subjects could stay for a prolonged in-house period in agreement with the Investigator. The follow-up visit occurred on Day 14 (+2 days).
# All subjects arrived at the study site in the morning of Day-1 in a fasted state (no food for at least 8 h, water was allowed) to have the scheduled assessments performed in order to confirm eligibility as outlined in the inclusion and exclusion criteria (Section 2.3.1 and Section 2.3.2, respectively). In the morning of Day 1 following an overnight fast, the subjects received oral dosing of 20 mg E4 monohydrate and remained at the site. Study-related assessments were performed at time points indicated in the Schedule of Assessments in Table 2.
# Serial blood sampling for PK assessments started on Day 1 and proceeded until Day 9 according to the Pharmacokinetic Sampling Schedule presented in Table 3.
# Each enrolled subject was to receive a single oral dose of 20 mg of E4 (estetrol) as monohydrate as a film-coated tablet.
# Study drug was administered to subjects in the morning after an overnight fast of at least 8 h.
# Calculation of non-compartmental PK parameters were done using WinNonlin™ Professional, Version 6.3 or higher.
# The primary PK parameters to be analyzed for E4 in plasma: • Cmax=maximum observed plasma concentration • AUCinf=area under the concentration-time curve (AUC) from time zero extrapolated to infinity
# The analysis of E4 and the metabolites E4-3-glucuronide and E4-16-glucuronide in plasma samples were performed at the Bioanalytical Laboratory of the CRO using a validated liquid chromatography-mass spectrometry/mass spectrometry method.
# Individual and mean plasma concentrations at each sampling time point for E4 are presented by listings and descriptive summary statistics including means, geometric means (GMs), medians, ranges, standard deviations (SD) and coefficients of variation (CV). Individual, mean and/or median concentrations per hepatic function group were plotted versus time on semilogarithmic scales.
# PK parameters were calculated by non-compartmental analysis. PK parameters were analysed using descriptive statistics and are presented by hepatic function group.
# Analysis of variance (ANOVA) were used to compare primary PK parameters of E4 (Cmax and AUCinf) between subjects with hepatic impairment and subjects with normal hepatic function in an exploratory approach, using the log-transformed value of each PK parameter as dependent variable, and the hepatic impairment group (normal, mild, moderate, and severe) as a fixed classification factor. Geometric least squares means were used to calculate the ratios of primary PK parameters for each hepatic impairment group to those in the control group, along with 90% confidence intervals (CIs).
# Additionally, the impact of age and BMI on the effect of hepatic impairment were evaluated using an ANOVA model similar as the ANOVA model described above, but with the interaction between each factor and the hepatic impairment group included as an additional factor.
# The relationship between log-transformed PK parameters (Cmax and AUCinf) and continuous parameters (albumin, total bilirubin, and prothrombin time) used for the Child-Pugh score was explored by a linear regression approach. […]
# [1] = mild hepatic impairment, single oral dose 20 mg
# [2] = moderate hepatic impairment, single oral dose 20 mg
# [3] = severe hepatic impairment, single oral dose 20 mg
smiles,measurement,setting,value
"C[C@]12CC[C@@H]3c4ccc(O)cc4CC[C@H]3[C@@H]1[C@@H](O)[C@@H](O)[C@@H]2O [E4, 1,3,5 (10)-estratrien-3,15alpha, 16alpha, 17beta-tetrol]",AUC(0-t),"Moderate hepatic impairment, single oral dose 20 mg E4 monohydrate, read-out: AUClast, Mean",122 ng·h/mL
same,AUC(0-t),"Moderate hepatic impairment, single oral dose 20 mg E4 monohydrate, read-out: AUClast, Median",114 ng·h/mL
same,Cmax,"Moderate hepatic impairment, single oral dose 20 mg E4 monohydrate, read-out: Cmax, GM",39.4 ng/mL
same,Cmax,"Moderate hepatic impairment, single oral dose 20 mg E4 monohydrate, read-out: Cmax, Mean",~52 ng/mL
same,Cmax,"Moderate hepatic impairment, single oral dose 20 mg E4 monohydrate, read-out: Cmax, Median",41.1 ng/mL
same,half-life,"Moderate hepatic impairment, single oral dose 20 mg E4 monohydrate, read-out: T1/2, GM (converted)",14.8 h
same,half-life,"Moderate hepatic impairment, single oral dose 20 mg E4 monohydrate, read-out: T1/2, Mean (converted)",16.6 h
same,half-life,"Moderate hepatic impairment, single oral dose 20 mg E4 monohydrate, read-out: T1/2, Median (converted)",14.3 h
same,Tmax,"Moderate hepatic impairment, single oral dose 20 mg E4 monohydrate",0.5 h
same,Vd/F,"Moderate hepatic impairment, single oral dose 20 mg E4 monohydrate, read-out: Vz/F, GM",3960 L
same,Vd/F,"Moderate hepatic impairment, single oral dose 20 mg E4 monohydrate, read-out: Vz/F, Mean",4760 L
same,Vd/F,"Moderate hepatic impairment, single oral dose 20 mg E4 monohydrate, read-out: Vz/F, Median",4150 L
same,AUC(0-inf),"Normal (Reference), one-way ANOVA, single oral dose 20 mg, read-out: AUCinf, Geometric LS Mean",104 ng·h/mL
same,Cmax,"Normal (Reference), one-way ANOVA, single oral dose 20 mg, read-out: Cmax, Geometric LS Mean",20.8 ng/mL
same,AUC(0-t),"Normal hepatic function, single oral dose 20 mg E4 monohydrate, read-out: AUC0-24 h, GM",60.4 ng·h/mL
same,AUC(0-t),"Normal hepatic function, single oral dose 20 mg E4 monohydrate, read-out: AUC0-24 h, Mean",63.5 ng·h/mL
same,AUC(0-t),"Normal hepatic function, single oral dose 20 mg E4 monohydrate, read-out: AUC0-24 h, Median",63.8 ng·h/mL
same,AUC(0-inf),"Normal hepatic function, single oral dose 20 mg E4 monohydrate, read-out: AUCinf, GM",104 ng·h/mL
same,AUC(0-inf),"Normal hepatic function, single oral dose 20 mg E4 monohydrate, read-out: AUCinf, Mean",108 ng·h/mL
same,AUC(0-inf),"Normal hepatic function, single oral dose 20 mg E4 monohydrate, read-out: AUCinf, Median",113 ng·h/mL
same,AUC(0-t),"Normal hepatic function, single oral dose 20 mg E4 monohydrate, read-out: AUClast, GM",103 ng·h/mL
same,AUC(0-t),"Normal hepatic function, single oral dose 20 mg E4 monohydrate, read-out: AUClast, Mean",107 ng·h/mL
same,AUC(0-t),"Normal hepatic function, single oral dose 20 mg E4 monohydrate, read-out: AUClast, Median",111 ng·h/mL
same,Cmax,"Normal hepatic function, single oral dose 20 mg E4 monohydrate, read-out: Cmax, GM",20.8 ng/mL
same,Cmax,"Normal hepatic function, single oral dose 20 mg E4 monohydrate, read-out: Cmax, Mean",~24 ng/mL
same,Cmax,"Normal hepatic function, single oral dose 20 mg E4 monohydrate, read-out: Cmax, Median",24.8 ng/mL
same,half-life,"Normal hepatic function, single oral dose 20 mg E4 monohydrate, read-out: T1/2, GM (converted)",21.7 h
same,half-life,"Normal hepatic function, single oral dose 20 mg E4 monohydrate, read-out: T1/2, Mean (converted)",22.3 h
same,half-life,"Normal hepatic function, single oral dose 20 mg E4 monohydrate, read-out: T1/2, Median (converted)",22.7 h
same,Tmax,"Normal hepatic function, single oral dose 20 mg E4 monohydrate",0.475 h
same,Vd/F,"Normal hepatic function, single oral dose 20 mg E4 monohydrate, read-out: Vz/F, GM",6000 L
same,Vd/F,"Normal hepatic function, single oral dose 20 mg E4 monohydrate, read-out: Vz/F, Mean",6590 L
same,Vd/F,"Normal hepatic function, single oral dose 20 mg E4 monohydrate, read-out: Vz/F, Median",6430 L
same,AUC(0-inf),"Severe (Test), one-way ANOVA, single oral dose 20 mg, read-out: AUCinf, Geometric LS Mean",198 ng·h/mL
same,Cmax,"Severe (Test), one-way ANOVA, single oral dose 20 mg, read-out: Cmax, Geometric LS Mean",111 ng/mL
same,AUC(0-t),"Severe hepatic impairment, single oral dose 20 mg E4 monohydrate, read-out: AUC0-24 h, GM",179 ng·h/mL
same,AUC(0-t),"Severe hepatic impairment, single oral dose 20 mg E4 monohydrate, read-out: AUC0-24 h, Mean",184 ng·h/mL
same,AUC(0-t),"Severe hepatic impairment, single oral dose 20 mg E4 monohydrate, read-out: AUC0-24 h, Median",172 ng·h/mL
same,AUC(0-inf),"Severe hepatic impairment, single oral dose 20 mg E4 monohydrate, read-out: AUCinf, GM",198 ng·h/mL
same,AUC(0-inf),"Severe hepatic impairment, single oral dose 20 mg E4 monohydrate, read-out: AUCinf, Mean",205 ng·h/mL
same,AUC(0-inf),"Severe hepatic impairment, single oral dose 20 mg E4 monohydrate, read-out: AUCinf, Median",180 ng·h/mL
same,AUC(0-t),"Severe hepatic impairment, single oral dose 20 mg E4 monohydrate, read-out: AUClast, GM",196 ng·h/mL
same,AUC(0-t),"Severe hepatic impairment, single oral dose 20 mg E4 monohydrate, read-out: AUClast, Mean",204 ng·h/mL
same,AUC(0-t),"Severe hepatic impairment, single oral dose 20 mg E4 monohydrate, read-out: AUClast, Median",178 ng·h/mL
same,Cmax,"Severe hepatic impairment, single oral dose 20 mg E4 monohydrate, read-out: Cmax, GM",111 ng/mL
same,Cmax,"Severe hepatic impairment, single oral dose 20 mg E4 monohydrate, read-out: Cmax, Mean",~117 ng/mL
same,Cmax,"Severe hepatic impairment, single oral dose 20 mg E4 monohydrate, read-out: Cmax, Median",109 ng/mL
same,half-life,"Severe hepatic impairment, single oral dose 20 mg E4 monohydrate, read-out: T1/2, GM (converted)",8.22 h
same,half-life,"Severe hepatic impairment, single oral dose 20 mg E4 monohydrate, read-out: T1/2, Mean (converted)",8.97 h
same,half-life,"Severe hepatic impairment, single oral dose 20 mg E4 monohydrate, read-out: T1/2, Median (converted)",6.26 h
same,Tmax,"Severe hepatic impairment, single oral dose 20 mg E4 monohydrate",0.25 h
same,Vd/F,"Severe hepatic impairment, single oral dose 20 mg E4 monohydrate, read-out: Vz/F, GM",1200 L
same,Vd/F,"Severe hepatic impairment, single oral dose 20 mg E4 monohydrate, read-out: Vz/F, Mean",1260 L
same,Vd/F,"Severe hepatic impairment, single oral dose 20 mg E4 monohydrate, read-out: Vz/F, Median",1220 L
same,time to primary peak plasma concentration after administration,group of severe hepatic impairment,≤ 15 min
same,time post dose until which concentrations remained above LLOQ in at least half of the subjects,mild hepatic impairment,144 h
same,time post-dose of last measurable concentration (Clast),"mild hepatic impairment, 192 h = last measured timepoint",192 h
same,GM AUCinf compared to the control group (normal hepatic function),[1],~ 1.1 fold and 1.120 fold
same,GM Cmax compared to the control group (normal hepatic function),[1],~ 1.7 fold and 1.661 fold
same,time post dose until which concentrations remained above LLOQ in at least half of the subjects,moderate hepatic impairment,96 h
same,time post-dose of last measurable concentration (Clast),moderate hepatic impairment,144 h
same,GM AUCinf compared to the control group (normal hepatic function),[2],~ 1.0 fold and 1.032 fold
same,GM Cmax compared to the control group (normal hepatic function),[2],~ 1.9 fold and 1.896 fold
same,time post dose until which concentrations remained above LLOQ in at least half of the subjects,normal hepatic function,144 h
same,time post-dose of last measurable concentration (Clast),"normal hepatic function, 192 h = last measured timepoint",192 h
same,time to primary peak plasma concentration after administration,"on average, single oral dose 20 mg",≤ 30 min
same,time post dose until which concentrations remained above LLOQ in at least half of the subjects,severe hepatic impairment,48 h
same,time post-dose of last measurable concentration (Clast),severe hepatic impairment,168 h
same,GM AUCinf compared to the control group (normal hepatic function),[3],~ 1.9 fold and 1.894 fold
same,GM Cmax compared to the control group (normal hepatic function),[3],~ 5.4 fold and 5.359 fold
same,time after which log-linear terminal elimination phase is entered,single oral dose 20 mg,~ 12 h
